In publication PMC2774234 (Molecular cancer research : MCR, 2009):

System: Prx1
Assay: Immunoblot of Prx1 after transient Prx1 siRNA transfection of LNCaP cells
Assay type: cell-based, human
Settings: 75 nM siRNA

11838: Ambion siRNA directed against exon 6 of Prx1; sense 5'-GGCUACUGGUUUGUAUGAUTT-3' (antisense AUCAUACAAACCAGUAGCCTG; chemistry not given here) [compound 11838]
expression of Prx1 (immunoblot): essentially abolished the expression of Prx1
